# Patent publication US20240041042A1, “1-(PYRIDYL)-5-AZINYLPYRAZOLE DERIVATIVES, AND THEIR USE FOR CONTROL OF UNDESIRED PLANT GROWTH” (Bayer Aktiengesellschaft, priority 2020, published 2024)
# Read-outs that look alike come from different tables or passages of the source.
# Columns and labels:
# Assay type in all cases: in vivo
# [1] = tested on: Triticum aestivum (TRZAS); settings: crop plant compatibility, effect vs untreated controls
# Summary of the method: (§1)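 Test crops were treated 2 to 3 weeks after sowing, once they reached one leaf, by spraying compound in water with 0.5% additive at 600 l/ha. Visual scoring compared them with untreated controls roughly 3 weeks on, and appendices a, b and c denote different doses.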
# Oryza sativa (ORYSA) [2] = settings: crop plant compatibility
# Summary of the method: as §1
# Zea mays (ZEAMX) [3] = tested on: Zea mays (ZEAMX)
# Summary of the method: as §1
# Glycine max (GLXMA) = assay: Post-emergence crop plant compatibility, GLXMA; settings: post-emergence, 20 g/ha, effect in comparison to untreated controls
# Method: Seeds of monocotyledonous and dicotyledonous weeds and crop plants are placed in sandy loam in plastic or organic planting pots, covered with soil and cultivated in a greenhouse under controlled growth conditions. 2 to 3 weeks after sowing, the test plants are treated at the one-leaf stage. The compounds of the invention, formulated in the form of wettable powders (WP) or as emulsion concentrates (EC), are then sprayed onto the green parts of the plants as aqueous suspension or emulsion with addition of 0.5% additive at a water application rate of 600 l/ha (converted). After the test plants have been kept in the greenhouse under optimum growth conditions for about 3 weeks, the activity of the preparations is rated visually in comparison to untreated controls. For example, 100% activity=the plants have died, 0% activity=like control plants.
# The observed effects on selected crop plants are reported here in comparison to the untreated controls (values in %). The appendices “a”, “b” and “c” give differentiation by dosage used with otherwise the same crop plants tested.
# [4] = tested on: Triticum aestivum (TRZAS); settings: pre-emergence, crop plant compatibility, in comparison to untreated controls
# Summary of the method: (§2)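 Scoring: visual, % of untreated control, about 3 weeks after a pre-emergence application to the soil surface. Application used WP or EC formulations diluted in water with 0.5% additive at 600 l/ha; dosage levels are marked by suffixes a, b and c.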
# Oryza sativa (ORYSA) [5] = settings: pre-emergence, crop plant compatibility, in comparison to untreated controls
# Summary of the method: as §2
# Zea mays (ZEAMX) [6] = settings: pre-emergence, crop plant compatibility, in comparison to untreated controls
# Summary of the method: as §2
# Brassica napus (BRSNW) = settings: 80 g/ha, crop plant compatibility, in comparison to untreated controls
# Summary of the method: as §2
# [7] = tested on: Digitaria sanguinalis (DIGSA); assay: Pre-emergence herbicidal action against DIGSA; settings: dosage 320 g/ha
# Summary of the method: (§3)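 Pre-emergence soil-surface spray of compound, formulated as wettable powder or emulsion concentrate, in aqueous suspension or emulsion with 0.5% additive (600 l/ha; rate 320 g/ha or less). Activity rated visually after roughly 3 weeks in the greenhouse as a percentage of untreated controls, 0% meaning no difference.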
# [8] = tested on: Matricaria inodora (MATIN); assay: Pre-emergence herbicidal action against MATIN; settings: dosage 320 g/ha
# Summary of the method: as §3
# [9] = tested on: Echinochloa crus-galli (ECHCG); assay: Pre-emergence herbicidal action against ECHCG; settings: dosage 320 g/ha
# Summary of the method: as §3
# [10] = tested on: Echinochloa crus-galli (ECHCG); assay: Post-emergence herbicidal action against ECHCG; settings: dosage 80 g/ha
# Summary of the method: (§4)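 Rates were 320 g/ha or below, applied as aqueous WP/EC spray with 0.5% additive (600 l/ha) onto one-leaf-stage plants. About 3 weeks later in the greenhouse, damage was scored visually against untreated plants on a 0–100% scale, where 100% means plants died.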
# [11] = tested on: Alopecurus myosuroides (ALOMY); assay: Pre-emergence herbicidal action against ALOMY; settings: 320 g/ha; scored visually after about 3 weeks; 100% = plants have died
# Summary of the method: as §3
# [12] = tested on: Abutilon theophrasti (ABUTH); assay: Post-emergence herbicidal action against ABUTH; settings: 80 g/ha, visual rating about 3 weeks after treatment vs untreated controls (100% = plants have died, 0% = like control plants)
# Summary of the method: as §4
# Lolium rigidum (LOLRI) [13] = assay: Pre-emergence herbicidal action against LOLRI; settings: dosage 320 g/ha
# Summary of the method: as §3
# Setaria viridis (SETVI) [14] = assay: Pre-emergence herbicidal action against SETVI; settings: dosage 320 g/ha
# Summary of the method: as §3
# [15] = tested on: Amaranthus retroflexus (AMARE); assay: Pre-emergence herbicidal action against AMARE; settings: 320 g/ha, visual scoring after about 3 weeks vs untreated controls
# Summary of the method: as §3
# [16] = tested on: Alopecurus myosuroides (ALOMY); assay: Post-emergence herbicidal action against ALOMY; settings: 80 g/ha, visual rating about 3 weeks after treatment vs untreated controls (100% = plants have died, 0% = like control plants)
# Summary of the method: as §4
# [17] = tested on: Pharbitis purpurea (PHBPU); assay: Post-emergence herbicidal action against PHBPU; settings: dosage 80 g/ha
# Summary of the method: as §4
# [18] = tested on: Polygonum convolvulus (POLCO); assay: Pre-emergence herbicidal action against POLCO; settings: dosage 320 g/ha
# Summary of the method: as §3
# [19] = tested on: Pharbitis purpurea (PHBPU); assay: Pre-emergence herbicidal action against PHBPU; settings: dosage 320 g/ha
# Summary of the method: as §3
# Lolium rigidum (LOLRI) [20] = assay: Post-emergence herbicidal action against LOLRI; settings: dosage 80 g/ha
# Summary of the method: as §4
# Avena fatua (AVEFA) = assay: Post-emergence herbicidal action against AVEFA; settings: 80 g/ha, visual rating about 3 weeks after treatment
# Summary of the method: as §4
# Setaria viridis (SETVI) [21] = assay: Post-emergence herbicidal action against SETVI; settings: dosage 80 g/ha
# Summary of the method: as §4
# Viola tricolor (VIOTR) = assay: Pre-emergence herbicidal action against VIOTR; settings: 320 g/ha, Viola tricolor
# Summary of the method: as §3
# [22] = tested on: Matricaria inodora (MATIN); assay: Post-emergence herbicidal action against MATIN; settings: dosage 80 g/ha
# Summary of the method: as §4
# [23] = 20 g/ha, effect vs untreated controls
# [24] = 80 g/ha, effect in comparison to untreated controls
compound,measurement,setting,value
COC(=O)COc1nn(-c2ncccc2F)c(-c2cncc(F)c2)c1Br [Example I-49],Post-emergence action against TRZAS in %,[1]; 20 g/ha,0%
same,Post-emergence action against TRZAS in %,[1]; 80 g/ha,10%
same,Post-emergence action against ORYSA in %,Oryza sativa (ORYSA) [2]; [23],0%
same,Post-emergence action against ORYSA in %,Oryza sativa (ORYSA) [2]; [24],10%
same,Post-emergence action against ZEAMX in % (crop plant compatibility),"Zea mays (ZEAMX) [3]; 20 g/ha, ZEAMX, effect in comparison to untreated controls",0%
same,Post-emergence action against ZEAMX in %,"Zea mays (ZEAMX) [3]; crop plant compatibility, 80 g/ha, effect vs untreated controls",10%
same,Post-emergence action against GLXMA in %,Glycine max (GLXMA),10%
same,Pre-emergence action against TRZAS in %,[4]; 80 g/ha,0%
same,Pre-emergence action against TRZAS in %,[4]; 320 g/ha,0%
same,Pre-emergence action against ORYSA in %,Oryza sativa (ORYSA) [5]; 80 g/ha,10%
same,Pre-emergence action against ORYSA in %,Oryza sativa (ORYSA) [5]; 320 g/ha,20%
same,Pre-emergence action against ZEAMX in %,Zea mays (ZEAMX) [6]; 80 g/ha,0%
same,Pre-emergence action against ZEAMX in %,Zea mays (ZEAMX) [6]; 320 g/ha,0%
same,Pre-emergence action against BRSNW in %,Brassica napus (BRSNW),10%
CCOC(=O)CSc1nn(-c2ccccn2)c(-c2cncc(F)c2)c1Br [Example I-125],Post-emergence action against TRZAS in %,[1]; 20 g/ha,10%
same,Post-emergence action against ORYSA in %,Oryza sativa (ORYSA) [2]; [23],0%
same,Post-emergence action against ORYSA in %,Oryza sativa (ORYSA) [2]; [24],0%
same,Pre-emergence action against DIGSA in %,[7],100%
same,Pre-emergence action against MATIN in %,[8],90%
same,Pre-emergence action against ECHCG in %,[9],80%
same,Post-emergence action against GLXMA in %,Glycine max (GLXMA),20%
same,Post-emergence action against ECHCG in %,[10],90%
same,Pre-emergence action against ALOMY,[11],80%
same,Post-emergence action against ABUTH in %,[12],80%
same,Pre-emergence action against LOLRI in %,Lolium rigidum (LOLRI) [13],80%
same,Pre-emergence action against SETVI in %,Setaria viridis (SETVI) [14],90%
same,Pre-emergence action against AMARE in %,[15],100%
same,Post-emergence action against ALOMY in %,[16],90%
same,Post-emergence action against PHBPU in %,[17],80%
same,Pre-emergence action against POLCO in %,[18],90%
same,Pre-emergence action against PHBPU in %,[19],90%
same,Post-emergence action against LOLRI in %,Lolium rigidum (LOLRI) [20],80%
same,Post-emergence action against AVEFA in %,Avena fatua (AVEFA),90%
same,Post-emergence action against SETVI in %,Setaria viridis (SETVI) [21],80%
same,Pre-emergence action against VIOTR in %,Viola tricolor (VIOTR),90%
same,Post-emergence action against MATIN in %,[22],80%
same,Pre-emergence action against TRZAS in %,[4]; 80 g/ha,10%
same,Pre-emergence action against ORYSA in %,Oryza sativa (ORYSA) [5]; 80 g/ha,10%
same,Pre-emergence action against ZEAMX in %,Zea mays (ZEAMX) [6]; 80 g/ha,10%
same,Pre-emergence action against BRSNW in %,Brassica napus (BRSNW),20%
